We go through 14 compounds from paper PMC11610652 (Archiv Der Pharmazie, 2024).

Experiment [1] has as its target T1, SIRT1 (Homo sapiens, UniProt Q96EB6).
T1 sequence (Q96EB6 2-747): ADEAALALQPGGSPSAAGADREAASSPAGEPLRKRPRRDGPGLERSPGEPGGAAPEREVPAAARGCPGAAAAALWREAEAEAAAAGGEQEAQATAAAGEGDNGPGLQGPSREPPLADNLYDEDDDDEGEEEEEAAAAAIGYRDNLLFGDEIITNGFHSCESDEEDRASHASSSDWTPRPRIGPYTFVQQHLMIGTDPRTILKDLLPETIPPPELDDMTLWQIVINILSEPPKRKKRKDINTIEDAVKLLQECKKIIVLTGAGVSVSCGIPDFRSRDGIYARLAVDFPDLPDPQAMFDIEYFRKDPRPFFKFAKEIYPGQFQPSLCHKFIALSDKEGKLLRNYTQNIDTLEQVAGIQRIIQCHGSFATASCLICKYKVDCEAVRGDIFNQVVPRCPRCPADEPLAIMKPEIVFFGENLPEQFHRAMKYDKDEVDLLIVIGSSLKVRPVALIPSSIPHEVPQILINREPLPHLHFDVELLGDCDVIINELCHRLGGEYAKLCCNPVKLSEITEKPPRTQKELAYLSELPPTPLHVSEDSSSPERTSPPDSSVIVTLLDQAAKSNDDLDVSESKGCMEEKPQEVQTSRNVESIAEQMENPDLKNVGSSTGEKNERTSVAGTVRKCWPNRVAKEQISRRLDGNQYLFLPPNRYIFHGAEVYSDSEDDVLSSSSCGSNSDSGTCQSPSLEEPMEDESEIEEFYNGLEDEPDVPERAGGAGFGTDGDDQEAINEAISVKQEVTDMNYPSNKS
The experiment in a line: fluorescence-based deacetylase assay kit, human recombinant enzyme. The experiment is classed as biochemical. Conditions: read-out: Inhibition (%±SD) / SIRT1 / 100 μM / 50 μM.

Experiment [2] concerns the target T2, SIRT2 (Homo sapiens, UniProt Q8IXJ6). Described as above. The experiment is classed as biochemical.
For experiment [3], the target named is T3, SIRT2 (Homo sapiens, UniProt Q8IXJ6).
T3 sequence (Q8IXJ6 2-389): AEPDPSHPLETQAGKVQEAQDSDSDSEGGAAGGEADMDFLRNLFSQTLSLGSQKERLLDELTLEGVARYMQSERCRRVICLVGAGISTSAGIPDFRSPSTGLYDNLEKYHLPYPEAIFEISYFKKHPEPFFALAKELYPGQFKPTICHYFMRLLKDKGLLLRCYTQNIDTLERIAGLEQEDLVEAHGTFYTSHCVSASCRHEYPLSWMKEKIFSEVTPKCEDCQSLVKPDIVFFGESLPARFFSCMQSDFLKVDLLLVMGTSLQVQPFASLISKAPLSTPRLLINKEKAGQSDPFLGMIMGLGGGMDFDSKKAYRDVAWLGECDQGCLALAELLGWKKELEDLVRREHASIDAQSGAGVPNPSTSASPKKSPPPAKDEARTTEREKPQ
The experiment in a line: biochemical. The settings on record: for inhibition at 50 µM: read-out: Inhibition (%±SD) / SIRT2 / 50 μM.

The target of experiment [4] is T1, SIRT1. The experiment in a line: biochemical. The settings on record: for inhibition at 100 µM: read-out: Inhibition (%±SD) / SIRT1 / 100 μM.
Experiment [5] addresses T4, SIRT3 (Homo sapiens, UniProt Q9NTG7).
T4 sequence (Q9NTG7 102-399): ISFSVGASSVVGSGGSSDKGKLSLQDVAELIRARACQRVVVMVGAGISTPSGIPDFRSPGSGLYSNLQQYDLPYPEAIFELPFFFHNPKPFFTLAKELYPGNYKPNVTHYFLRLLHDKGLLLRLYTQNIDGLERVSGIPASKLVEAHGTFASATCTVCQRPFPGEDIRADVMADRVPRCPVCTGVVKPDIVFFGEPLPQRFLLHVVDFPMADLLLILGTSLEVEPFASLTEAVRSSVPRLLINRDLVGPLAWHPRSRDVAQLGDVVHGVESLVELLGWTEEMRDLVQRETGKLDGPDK
The experiment in a line: biochemical. Conditions: for inhibition at 100 µM: read-out: Inhibition (%±SD) / SIRT3 / 100 μM; for inhibition at 50 µM: read-out: Inhibition (%±SD) / SIRT3 / 50 μM.

For experiment [6], the target named is T2, SIRT2. As to the kind of experiment: fluorescence-based deacetylase assay kit, human recombinant enzyme. Conditions: read-out: Inhibition (%±SD) / SIRT2 / 50 μM / SIRT1 / 100 μM. The experiment is classed as biochemical.
For experiment [7], the target named is T4, SIRT3. The description is as above. The experiment is classed as biochemical. The settings on record: read-out: Inhibition (%±SD) / SIRT3 / 50 μM.
Where [8] appears, read: read-out: Inhibition (%±SD) / SIRT2 / 100 μM.

The structures appear in SMILES notation. Where two headings read alike, the source gives them in different places.

For orientation: IC50 means the midpoint of a concentration-inhibition curve.

Turning to `NC(=O)C1CCCc2c1[nH]c1ccc(Cl)cc21` (racemic) [EX‐527], the inhibition at 50 µM at SIRT1 [1] is 90.2%.

For the compound `O=C(Nc1ccc2c(c1)C(=O)c1cc(NC(=O)Nc3nccs3)ccc1-2)Nc1nccs1` [SG1, 1,1′‐(9‐Oxo‐9H‐fluorene‐2,7‐diyl)bis[3‐(thiazol‐2‐yl)urea]], the IC50 at SIRT2 [2] came to 9.67 µM. Also, at SIRT2 [3], the inhibition at 50 µM stood at 72.4 ± 2.88%. For the same compound, the inhibition at 100 µM worked out at 106 ± 4.22% on SIRT2 [3] (setting [8]), 22.5 ± 3.74% at SIRT1 [4] and 44.7 ± 2.08% on SIRT3 [5].

With `Cn1ccc(NC(=O)Nc2ccc3c(c2)C(=O)c2cc(NC(=O)Nc4ccn(C)n4)ccc2-3)n1` [SG2], the inhibition at 50 µM at SIRT2 [3] was 21.6 ± 4.19%. Also, the results for the inhibition at 100 µM on SIRT2 [3] (setting [8]), on SIRT1 [4] and on SIRT3 [5] were 48.5 ± 0.3%, 11.3 ± 1.83% and 17.5 ± 0.57%, respectively.

Consider `O=C(Nc1ccc2c(c1)C(=O)c1cc(NC(=O)Nc3ccon3)ccc1-2)Nc1ccon1` [SG3, 1,1′‐(9‐Oxo‐9H‐fluorene‐2,7‐diyl)bis[3‐(isoxazol‐3‐yl)urea]], for which, on SIRT2 [2], the IC50 is 1.95 µM. Further, the inhibition at 50 µM at SIRT2 [3] amounted to 77.8 ± 1.7%. The values for the inhibition at 100 µM on SIRT2 [3] (setting [8]) and at SIRT3 [5] were 84.4 ± 4.07% and 18.6 ± 1.54%, respectively.

As to `O=C(Nc1ccc2c(c1)C(=O)c1cc(NC(=O)Nc3ccccn3)ccc1-2)Nc1ccccn1` [SG4, 1,1′‐(9‐oxo‐9H‐fluorene‐2,7‐diyl)bis[3‐(pyridin‐2‐yl)urea]], on SIRT2 [2], the IC50 came out at 6.65 µM. At SIRT2 [3], the inhibition at 50 µM turned out to be 67.6 ± 3.95%. For the same compound, the inhibition at 100 µM at SIRT2 [3] (setting [8]) came out at 101 ± 7.54%; at SIRT1 [4], 24.7 ± 5.02%; at SIRT3 [5], 42.5 ± 4.88%.

For `O=C(COc1ccc2c(c1)C(=O)c1cc(OCC(=O)Nc3nccs3)ccc1-2)Nc1nccs1` [SG5, 2,2′‐[(9‐Oxo‐9H‐fluorene‐2,7‐diyl)bis(oxy)]bis[N‐(thiazol‐2‐yl)acetamide]], the values for the inhibition at 50 µM on SIRT2 [6], on SIRT1 [4] (read-out: Inhibition (%±SD) / SIRT1 / 50 μM) and on SIRT3 [5] were 62.4%, 53.2 ± 1.62% and 51.7 ± 1.56%, respectively. For the same compound, the inhibition at 100 µM on SIRT2 [3] (setting [8]) worked out at 102 ± 8.24%; on SIRT1 [4], 71.2 ± 5.29%; on SIRT3 [5] it was 55.6 ± 4.42%.

With `Cn1ccc(NC(=O)COc2ccc3c(c2)C(=O)c2cc(OCC(=O)Nc4ccn(C)n4)ccc2-3)n1` [SG6], the values for the inhibition at 50 µM at SIRT2 [3] and at SIRT3 [5] were 64 ± 3.84% and 20.5 ± 7.34%, respectively. Besides, the inhibition at 100 µM at SIRT2 [3] (setting [8]) was found to be 65.6 ± 3.34%; at SIRT1 [4], 27.8 ± 1.31%; on SIRT3 [5], 36.8 ± 2.26%.

As to `O=C(COc1ccc2c(c1)C(=O)c1cc(OCC(=O)Nc3ccon3)ccc1-2)Nc1ccon1` [SG7], the inhibition at 100 µM at SIRT2 [3] (setting [8]) stood at 21.5 ± 2.37%.

For `O=C(COc1ccc2c(c1)C(=O)c1cc(OCC(=O)Nc3ccccn3)ccc1-2)Nc1ccccn1` [SG8, 2,2′‐[(9‐Oxo‐9H‐fluorene‐2,7‐diyl)bis(oxy)]bis[N‐(pyridin‐2‐yl)acetamide]], the inhibition at 50 µM at SIRT2 [6] stood at 99.8%; at SIRT3 [7] it was 76.4%. Besides, the results for the inhibition at 100 µM at SIRT2 [3] (setting [8]), on SIRT1 [4] and at SIRT3 [5] were 103 ± 2.61%, 13.2 ± 2.22% and 83.07 ± 0.27%, respectively.

Take `O=C(CSc1ccccc1)Nc1ccc2c(c1)C(=O)c1cc(NC(=O)CSc3ccccc3)ccc1-2` [SG9, N,N′‐(9‐Oxo‐9H‐fluorene‐2,7‐diyl)bis[2‐(phenylthio)acetamide]]: the results for the inhibition at 50 µM at SIRT3 [7] and on SIRT2 [3] were 85% and 51 ± 2.28%, respectively. Besides, the inhibition at 100 µM stood at 71.4 ± 6.51% on SIRT2 [3] (setting [8]) and 90 ± 3.41% at SIRT3 [5].

As to `Cn1ccnc1SCC(=O)Nc1ccc2c(c1)C(=O)c1cc(NC(=O)CSc3nccn3C)ccc1-2` [SG10], on SIRT2 [3] (setting [8]), the inhibition at 100 µM was determined as 18.1 ± 1.88%.

Consider `Cc1cc(C)nc(SCC(=O)Nc2ccc3c(c2)C(=O)c2cc(NC(=O)CSc4nc(C)cc(C)n4)ccc2-3)n1` [SG11], for which the inhibition at 100 µM on SIRT2 [3] (setting [8]) was determined as 17.2 ± 6.1%.

`CN(CC(=O)Nc1ccc2c(c1)C(=O)c1cc(NC(=O)CN(C)c3ccccc3)ccc1-2)c1ccccc1` [SG12, N,N′‐(9‐oxo‐9H‐fluorene‐2,7‐diyl)bis{2‐[methyl(phenyl)amino]acetamide}]: the inhibition at 50 µM is 74.7% on SIRT2 [6] and 70.1% at SIRT3 [7]. The inhibition at 100 µM on SIRT2 [3] (setting [8]) was determined as 85.5 ± 5.68%; on SIRT1 [4] it was 88.4 ± 4.45%; at SIRT3 [5], 95.84 ± 0.52%.

`Cc1ccc(C(=O)Nc2ccc(S(=O)(=O)O)c3cc(S(=O)(=O)O)cc(S(=O)(=O)O)c23)cc1NC(=O)c1cccc(NC(=O)Nc2cccc(C(=O)Nc3cc(C(=O)Nc4ccc(S(=O)(=O)O)c5cc(S(=O)(=O)O)cc(S(=O)(=O)O)c45)ccc3C)c2)c1` [Suramin]: on SIRT2 [3] (read-out: % inhibition), the inhibition at 100 µM was 98.52 ± 0.45%. Also, on SIRT2 [3] (setting [8]), the inhibition worked out at 78.92 ± 0.67%.
